Here are results for 14 compounds from PubChem BioAssay (NCI).

Test systems include EKVX NSCLC; SN12C renal; KM12 colon; COLO 205 colon; A549 NSCLC; UACC-62 melanoma; ACHN renal; A498 renal; SF-539 CNS; OVCAR-5 ovarian.
Experiment in all cases: NCI-60 cell line screen, 48 h

Where “and” joins values, the source holds several entries; their conditions need not be identical. Equal values may be shown once.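 Protocol summary: plate cells (96-well), add compound at 5 concentrations, incubate 48 h, interpolate endpoints linearly. The concentration for 50% growth inhibition is given as GI50. TGI marks complete inhibition of growth.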 A value given as a limit tells only on which side of the number the result lay.

Regarding `O=NNc1ccc(S(=O)(=O)c2ccc3ccccc3c2)cn1`, the TGI in the experiment with EKVX NSCLC, in the experiment on SN12C renal, with KM12 colon, with COLO 205 colon, in the experiment with A549 NSCLC and in the experiment on UACC-62 melanoma was more than 100 µM in each case. In addition, the TGI with ACHN renal, in the experiment with A498 renal, with SF-539 CNS and with OVCAR-5 ovarian was more than 100 µM each time.

Take `OCC(O)C(O)C(O)C(O)c1nnc2c(-c3ccccc3)nc3ccccc3n12` (stereo not drawn): the GI50 with EKVX NSCLC was more than 100 µM; in the experiment on SN12C renal, more than 100 µM; with KM12 colon it was more than 100 µM; in the experiment on COLO 205 colon, 74 µM; in the experiment with A549 NSCLC it was more than 100 µM; with UACC-62 melanoma, more than 100 µM. Besides, the GI50 with ACHN renal was more than 100 µM; in the experiment with A498 renal it was 38.2 µM; with SF-539 CNS, more than 100 µM; with OVCAR-5 ovarian, more than 100 µM. Further, the TGI in the experiment with EKVX NSCLC, in the experiment on SN12C renal, with KM12 colon, with COLO 205 colon, in the experiment on A549 NSCLC and with UACC-62 melanoma was more than 100 µM throughout. Further, the TGI in the experiment on ACHN renal, with A498 renal, in the experiment on SF-539 CNS and in the experiment on OVCAR-5 ovarian was more than 100 µM throughout.

As to `CC1(C)N=C(N)N=C(N)N1c1cccc(CCc2ccccc2)c1`, the GI50 in the experiment with EKVX NSCLC was 1.1 µM; in the experiment with SN12C renal, 0.456 µM; in the experiment on KM12 colon, 0.456 µM; in the experiment on COLO 205 colon, 0.574 µM; with A549 NSCLC, 0.125 µM; in the experiment with UACC-62 melanoma, 0.49 µM. Further, the figures for the GI50 in the experiment on ACHN renal, in the experiment with A498 renal and in the experiment with SF-539 CNS were 13.4 µM, 3.57 µM and 1.37 µM, respectively. The TGI in the experiment with EKVX NSCLC is more than 100 µM; with SN12C renal it was more than 100 µM; in the experiment on KM12 colon it was 14.6 µM; with COLO 205 colon, 16.9 µM; in the experiment with A549 NSCLC it was more than 100 µM; with UACC-62 melanoma it was 20.4 µM. Moreover, the TGI in the experiment with ACHN renal is more than 100 µM; in the experiment on A498 renal, 96.9 µM; in the experiment on SF-539 CNS, more than 100 µM; in the experiment on OVCAR-5 ovarian it was more than 100 µM.

Consider `CC(=O)OCC1OC(n2c3c(cc(C#N)c2=S)CCCC3)C(OC(C)=O)C(OC(C)=O)C1OC(C)=O` (stereo not drawn), for which the TGI in the experiment on EKVX NSCLC, in the experiment on SN12C renal, in the experiment with KM12 colon, in the experiment on COLO 205 colon, with A549 NSCLC and with UACC-62 melanoma was more than 100 µM each time. For the same compound, the TGI in the experiment on ACHN renal, in the experiment on A498 renal, in the experiment on SF-539 CNS and with OVCAR-5 ovarian was more than 100 µM in each case. The GI50 was 31.7 µM and > 100 µM in the experiment with KM12 colon; > 100 µM and 26.5 µM with UACC-62 melanoma; > 100 µM and 48.1 µM in the experiment with SF-539 CNS.

`Nc1ncc2ncn(C3CCC(CO)O3)c2n1` (stereo not drawn): the TGI in the experiment on EKVX NSCLC, in the experiment on SN12C renal, in the experiment with KM12 colon, in the experiment on COLO 205 colon, in the experiment with A549 NSCLC and in the experiment on UACC-62 melanoma was more than 100 µM in each case. Also, the TGI in the experiment on ACHN renal, in the experiment with A498 renal, with SF-539 CNS and in the experiment on OVCAR-5 ovarian was more than 100 µM each time.

Regarding `COc1cc2c3cc1Oc1c(OC)c(OC)cc4c1C(Cc1ccc(O)c(c1)Oc1ccc(cc1)CC3N(C)CC2)N(C)CC4` (stereo not drawn), the TGI in the experiment on EKVX NSCLC is more than 100 µM; in the experiment on SN12C renal it was 47.1 µM and > 100 µM; in the experiment with KM12 colon, 65.8 µM and 31.8 µM; in the experiment with COLO 205 colon, > 100 µM and 30.4 µM; in the experiment with A549 NSCLC it was 81.7 µM and 48.8 µM; in the experiment with UACC-62 melanoma, > 100 µM and 29.2 µM. Further, the TGI is 34.9 µM and 44.1 µM with ACHN renal; 48.4 µM with A498 renal; > 100 µM and 62.4 µM in the experiment on OVCAR-5 ovarian. Besides, the GI50 with SN12C renal was 23.4 µM; in the experiment on KM12 colon it was 14.2 µM; in the experiment with COLO 205 colon it was 14.3 µM; in the experiment with A549 NSCLC it was 14.4 µM; with ACHN renal it was 12.7 µM; with SF-539 CNS it was 2.16 µM. The GI50 in the experiment with OVCAR-5 ovarian was 8.3 µM.

Take `NC1=NCN(C2OC(CO)C(O)C2O)C(=O)N1` (stereo not drawn): the TGI with EKVX NSCLC was determined as 1870 µM; in the experiment with SN12C renal it was 1680 µM; in the experiment with KM12 colon, 674 µM; with COLO 205 colon, 584 µM; in the experiment on A549 NSCLC, 1080 µM; with UACC-62 melanoma, 241 µM. The TGI with ACHN renal was determined as 106 µM; in the experiment on A498 renal, 804 µM; in the experiment on SF-539 CNS, 342 µM; in the experiment on OVCAR-5 ovarian it was 2150 µM.

As to `O=CN1N=C(c2cccc(Nc3ccnc4cc(Cl)ccc34)c2)CC1c1ccc(Cl)cc1` (stereo not drawn), the GI50 with EKVX NSCLC is more than 100 µM; in the experiment with SN12C renal it was 3.86 µM; with KM12 colon it was 0.591 µM; with COLO 205 colon, 1.39 µM; with A549 NSCLC, 0.941 µM; in the experiment with UACC-62 melanoma, 1.63 µM. The GI50 in the experiment on ACHN renal was 5.17 µM; with A498 renal, 0.832 µM; in the experiment with SF-539 CNS, 3.78 µM; with OVCAR-5 ovarian, more than 100 µM. For the same compound, the TGI in the experiment on EKVX NSCLC is more than 100 µM; in the experiment on SN12C renal, more than 100 µM; in the experiment on KM12 colon, more than 100 µM; in the experiment with COLO 205 colon, 6.67 µM; in the experiment on A549 NSCLC it was more than 100 µM; with UACC-62 melanoma, more than 100 µM. The TGI is more than 100 µM with ACHN renal, 6.18 µM with A498 renal, 69.5 µM in the experiment on SF-539 CNS and more than 100 µM with OVCAR-5 ovarian.

Turning to `Cc1ccc(OC(=O)N2C/C(=C\c3ccccc3)C(=O)/C(=C/c3ccccc3)C2)cc1`, the TGI in the experiment on EKVX NSCLC was more than 100 µM; in the experiment on SN12C renal, 58.3 µM; with KM12 colon, 45.7 µM; in the experiment with COLO 205 colon, more than 100 µM; in the experiment with A549 NSCLC, more than 100 µM; in the experiment on UACC-62 melanoma, 59 µM. Moreover, the TGI is 80.9 µM in the experiment on ACHN renal, more than 100 µM with A498 renal, 66.2 µM with SF-539 CNS and more than 100 µM in the experiment with OVCAR-5 ovarian.

On to `O=C(/C=C/c1ccccc1O)c1ccccc1Cl`, for which the TGI in the experiment with EKVX NSCLC, in the experiment with SN12C renal, in the experiment with KM12 colon, with COLO 205 colon, in the experiment with A549 NSCLC and in the experiment with UACC-62 melanoma was more than 100 µM each time. Further, the TGI in the experiment on ACHN renal, in the experiment on A498 renal, in the experiment with SF-539 CNS and with OVCAR-5 ovarian was more than 100 µM each time.

Regarding `Cc1nc2ccccc2c(=O)n1/N=C(\N=Nc1cc(Cl)ccc1Cl)c1ccccc1`, the TGI in the experiment with EKVX NSCLC is more than 100 µM; in the experiment with SN12C renal, more than 83.3 µM; in the experiment on KM12 colon it was 25.8 µM; with COLO 205 colon, more than 100 µM; in the experiment with A549 NSCLC, more than 100 µM; in the experiment on UACC-62 melanoma, more than 100 µM. The TGI in the experiment on ACHN renal, in the experiment on A498 renal, in the experiment with SF-539 CNS and with OVCAR-5 ovarian was more than 100 µM throughout.

On to `C#C[C@]1(O)CC[C@H]2[C@@H]3CC=C4c5nc(N)sc5CC[C@]4(C)[C@H]3CC[C@@]21C`, for which the GI50 in the experiment with EKVX NSCLC was 5.47 µM; in the experiment on SN12C renal, 10.1 µM; with KM12 colon it was 3.49 µM; in the experiment on COLO 205 colon, 3.66 µM; in the experiment with A549 NSCLC, 4.15 µM; in the experiment with UACC-62 melanoma it was 2.05 µM. For the same compound, the GI50 was 5.25 µM in the experiment with ACHN renal, 1.96 µM with A498 renal, 1.58 µM in the experiment on SF-539 CNS and 11.8 µM in the experiment on OVCAR-5 ovarian. Further, the TGI in the experiment on EKVX NSCLC turned out to be 50.9 µM; in the experiment with SN12C renal, 30.6 µM; in the experiment with KM12 colon it was 16.1 µM; in the experiment with COLO 205 colon it was 15.8 µM; in the experiment on A549 NSCLC, 24.8 µM; in the experiment with UACC-62 melanoma, 5.2 µM. Also, the TGI came out at 30.2 µM with ACHN renal, 4.21 µM with A498 renal, 3.56 µM with SF-539 CNS and 36.9 µM with OVCAR-5 ovarian.

Take `CCOc1ccc2cc(-c3nn(CC4CCNCC4)c4ncnc(N)c34)ccc2c1`: the GI50 with EKVX NSCLC is 22.5 µM; in the experiment with SN12C renal it was 11.5 µM; in the experiment with KM12 colon, 1.64 µM; in the experiment with COLO 205 colon it was 12.2 µM; in the experiment with A549 NSCLC it was 20.3 µM; with UACC-62 melanoma it was 16.9 µM. Also, the GI50 in the experiment with ACHN renal is 15.1 µM; with A498 renal it was 11.2 µM; in the experiment with SF-539 CNS, 13.9 µM; in the experiment on OVCAR-5 ovarian, 14.9 µM. The TGI in the experiment with EKVX NSCLC is more than 100 µM; with SN12C renal, 33 µM; in the experiment on KM12 colon, 13.7 µM; with COLO 205 colon, 27 µM; with A549 NSCLC, 46.2 µM; in the experiment with UACC-62 melanoma, 32.1 µM. In addition, the TGI came to 29.8 µM in the experiment with ACHN renal, 24.9 µM with A498 renal, 26.9 µM in the experiment on SF-539 CNS and 34.5 µM with OVCAR-5 ovarian.

With `COc1cc2ncnc(Oc3cccc(NC(=O)Nc4cc(C(C)(C)C(F)(F)F)on4)c3)c2cc1OC`, the GI50 was 1.52 µM in the experiment on EKVX NSCLC; 1.61 µM and 1.69 µM in the experiment on SN12C renal; 3.4 µM and 5.28 µM in the experiment on KM12 colon; 0.103 µM and 0.153 µM with COLO 205 colon; 1.9 µM and 2.74 µM with A549 NSCLC; 0.0628 µM and 0.0978 µM in the experiment on UACC-62 melanoma. Further, the GI50 is 0.438 µM and 0.598 µM in the experiment on ACHN renal; 0.322 µM and 1.05 µM with A498 renal; 2.75 µM and 3.14 µM with SF-539 CNS; 1.1 µM and 1.01 µM with OVCAR-5 ovarian. Moreover, the TGI with EKVX NSCLC was more than 10 µM; in the experiment with SN12C renal, 11.9 µM and > 10 µM; with KM12 colon, 14 µM and > 10 µM; in the experiment on COLO 205 colon, 5.71 µM and > 5.57 µM; in the experiment on A549 NSCLC, 40.8 µM and > 10 µM; with UACC-62 melanoma, 1.59 µM and 1.34 µM. Besides, the TGI with ACHN renal is 12.9 µM and > 10 µM; with A498 renal, 1.36 µM and 3.62 µM; in the experiment with SF-539 CNS, 12.9 µM and > 10 µM; in the experiment on OVCAR-5 ovarian, 10.5 µM and > 10 µM.
